Data published in PMC9669016, “First-in-human phase Ia study of the PI3Kα inhibitor CYH33 in patients with solid tumors” (Nature Communications, 2022).
Read-outs that look alike come from different tables or passages of the source.

Tests used:
[1] = system: KYSE510 human esophageal cancer xenograft; parameters: method as in Investigator's Brochure (IB) 12; settings: 12.5 mg/kg oral for 21 days; ref Investigator's Brochure (IB) 12; cited from earlier work
[2] = parameters: method as in Investigator's Brochure (IB) 12; settings: rats, without concentration dependency; ref Investigator's Brochure (IB) 12; cited from earlier work
[3] = system: SD rats; parameters: method as in Investigator's Brochure (IB) 12; settings: ref Investigator's Brochure (IB) 12; cited from earlier work
[4] = system: CHL; parameters: method as in Investigator's Brochure (IB) 12; settings: ref Investigator's Brochure (IB) 12; cited from earlier work
[5] = system: pregnant rats; parameters: method as in Investigator's Brochure (IB) 12; settings: ref Investigator's Brochure (IB) 12; cited from earlier work
[6] = system: fasting blood glucose (FBG); test: Pharmacodynamics: fasting blood glucose (FBG) change from baseline; type: in vivo, human; settings: Cycle 1 Day 15 (C1D15), starting at 10 mg CYH33 and peaking at 60 mg
Source text: Since glucose metabolism is tightly regulated by PI3Kα[24], fasting blood glucose (FBG) levels were used as a PD marker.
This is a phase I clinical study (ClinicalTrials.gov identifier: NCT03544905), including a phase Ia study of oral CYH33 monotherapy in patients with advanced solid tumors, and a phase Ib study of oral CYH33 monotherapy focused on several specific tumors. Here we report the results of the phase Ia study conducted at Sun Yat-sen University Cancer Center. The phase Ia study included dose-escalation stage and dose-expansion stage. […]
Blood samples for PK evaluation were collected at: (1) during the single dose phase: on day 1 pre-dose and 0.5, 1, 2, 4, 8, 12, 24, 36, 48, and 72 h post-dose; (2) during the continuous dose phase: C1D1/Cycle 1 Day 28 pre-dose, and 0.5, 1, 2, 3, 4, 6, 8, 12, and 24 h post-dose; and C1D8/Day 15 pre-dose. Plasma concentrations of CYH33 and I27 were analyzed using a liquid chromatography-tandem mass spectrometry (LC/MS/MS) assay (Shimadzu Corporation, LC-30AD) with a lower limit of quantification (LLOQ) of 2.585 ng/mL and 1.0 ng/mL for CYH33 and I27, respectively. […]

[7] = system: CYP2B6; parameters: method as in Investigator's Brochure (IB) 12; settings: up to 100 µM; ref Investigator's Brochure (IB) 12; cited from earlier work
[8] = parameters: method as in Investigator's Brochure (IB) 12; settings: human, without concentration dependency; ref Investigator's Brochure (IB) 12; cited from earlier work

COC(=O)Nc1cc(C(F)(F)F)c(-c2nc(N3CCOCC3)c3cc(CN4CCN(S(C)(=O)=O)CC4)cn3n2)cn1 [CYH33, methyl (5-(6-((4-(methylsulfonyl)piperazin-1-yl)methyl)−4-morpholinopyrrolo[2,1-f][1,2,4]triazin-2-yl)−4-(trifluoromethyl)pyridin-2-yl)carbamate]
T/C ratio [1]: approximately 30%
plasma protein binding (PPB) [2]: 97.5%
MTD, acute toxicity [3]: ≥ 600 mg/kg
CHL chromosomal aberration assay result [4]: negative
no-observed-adverse-effect level (NOAEL) for embryo-fetal development [5]: 0.10 mg/kg
FBG levels [6]: dose-dependent increase in FBG levels
inhibition of CYP2B6 [7]: did not inhibit
plasma protein binding (PPB) [8]: 94.9%
